Molecules are shown by their SMILES.

A short description of test [1]: Electroshock Induced Convulsion Inhibition Assay. The test is classed as in vivo, Cox standard strain albino male mice. The note with it: Mus musculus; oral; 0.1 second, 50 milliampere corneal electroshock; active = total score of 6 or less; read-out: Minimum active oral dose, Electro-Shock. On the procedure:
(§1) In this assay, a compound to be tested was suspended in acacia (5%) and administered by gavage to each of three Cox standard strain albino male mice (18-24 grams) at the dose level being investigated. One hour after the oral administration, a water solution of metrazole (pentylenetetrazole) was administered by the intraperitoneal route to each mouse at a dose of 110 mg./kg. […] A score of 0 was assigned to a mouse not showing any signs of convulsant activity; a score of 1 was given to mice developing clonic convulsions; a score of 2 was given to mice showing flexor tonic convulsions; a score of 3 was given to mice showing extensor tonic convulsions; and a score of 4 was given to mice that died within the one hour. The scores of the three mice were totalled for each compound and dose level. The scores can range from 0 to 12; a score of 6 or less was interpreted as indicative of an active compound at that dose level. Values reported in Table 2 below are the minimum oral dose levels (mg./kg.) where activity as defined above was observed.
The drug administration and test conditions used in this assay were similar to those used in the metrazole induced convulsion inhibition assay above except that a 0.1 second, 50 milliampere electroshock through corneal electrodes induced the convulsion instead of metrazole. The animals were examined and evaluated immediately after the electroshock and were scored as before. The results in Table 2 are expressed as the lowest dose of each compound tested which was active as previously defined. For comparison, 18 milliamperes was usually sufficient to produce extensor tonic convulsions in about half of the control animals; at 50 milliamperes, almost all control animals died. Diazepam was active at about 1 mg./kg.

The nature of test [2]: Appetite Suppression Assay. The class given is in vivo, Cox standard strain albino male mice. The following applies: Mus musculus; oral gavage 30 min before feeding; active = weight gain of less than 10% of weight lost on fasting; read-out: Minimum active oral dose, Appetite Suppression. On the procedure: In this test, groups of three Cox standard strain albino male mice were weighed (18-24 grams) and then fasted overnight (16-18 hours). The mice were reweighed and then given the test compound in a suspension of acacia (5%) by gavage. Thirty minutes after oral administration, the mice were allowed to eat freely for one hour. After the eating period, the mice were weighed once more. The percent of weight gained (from the time the mice were given the test compound to after the feeding period) compared to weight lost during the fast period was calculated. The non-drug treated control animals gained back 35-55% of the weight lost on fasting. Any compound at the dose level tested which produced a weight gain of less than 10% was considered to be active. The results in Table 2 report the lowest dose level in which there was activity for each compound tested. Dextroamphetamine sulfate is active in this system at about 2.5 mg./kg.

Test [3] can be described thus: Metrazole Induced Convulsion Inhibition Assay. The class given is in vivo, Cox standard strain albino male mice. The following applies: Mus musculus; oral gavage, 1 h before metrazole 110 mg./kg. i.p.; active = total score of 6 or less (3 mice, range 0-12); read-out: Minimum active oral dose, Metrazole. The protocol: as §1
The nature of test [4]: Mouse Writhing Inhibition Assay. The class given is in vivo, Cox standard strain albino male mice. The note with it: oral gavage 60 min before acetic acid 55 mg./kg. i.p., active = less than ten writhes, read-out: Minimum active oral dose, Mouse Writhing. On the procedure:
Writhing, which is characterized by contraction of the abdominal musculature, extension of the hindlegs, and rotation of the trunk, was induced in Cox standard strain albino male mice. The mice, weighing 18-24 grams, were fasted overnight and given the test compound by gavage in an acacia suspension (5%) 60 minutes before writhing was induced by the intraperitoneal administration of 55 mg./kg. of acetic acid (0.55 percent). Each treatment group consisted of 3 mice. The total number of writhes for the treatment group was determined during a 5-minute observation starting 5 minutes after acetic acid administration.
In general terms: An intraperitoneal irritant provokes the stretching counted in writhing tests.

Test [5] concerns the target GABA receptor. Briefly: In vitro activation of GABA binding ([3H]GABA, Triton X-100 treated membrane protein). The note with it: average of one or more tests, read-out: SC50 GABA (nanomolar concentration producing a 50% increase in binding). On the procedure:
(§2) The novel compounds of this invention were examined for their in vitro ability to activate GABA and benzodiazepine (BZ) binding. To measure the effect of a compound on GABA binding, Triton X-100 (octylphenoxy polyethoxyethanol, Rohm and Haas Co.) treated membrane protein was incubated in the presence of the compound and [^3 H]GABA as detailed by Horng and Wong, J. Neurochemistry, 32 (5), 1379 (1979). To examine BZ binding, H-flunirazepam and the compounds were incubated with native membrane protein as reported by Wong, et al, Brain Res. Bull., 5 (Suppl. 2), 853 (1980). The results in Table 1 are the nanomolar concentrations of compounds (by Example No.) which produced a 50 percent increase (SC50) in GABA or BZ binding. Each result is the average of one or more tests.

Test [6] concerns the target benzodiazepine receptor. Briefly: In vitro activation of benzodiazepine (BZ) binding (flunirazepam, native membrane protein). The following applies: average of one or more tests, read-out: SC50 BZ (nanomolar concentration producing a 50% increase in binding). On the procedure: as §2

Turning to `CC(=O)OC1CCN(c2nnc(-c3ccccc3C)c(-c3ccccc3C)n2)CC1` [Example 14, 1-[5,6-bis(2-methylphenyl)-1,2,4-triazin-3-yl]-4-piperidinol, acetate (ester)], the minimal effective dose in test [1] was > 200 mg/kg; in test [2] it was 200 mg/kg; in test [3] it was 200 mg/kg; in test [4], > 200 mg/kg. Also, the EC50 in test [5] is 60 nM; in test [6], 1000 nM.
As to `CCC(=O)OC1CCN(c2nnc(-c3ccc(C)cc3)c(-c3ccc(C)cc3)n2)CC1` [Example 15, 1-[5,6-bis(4-methylphenyl)-1,2,4-triazin-3-yl]-4-piperidinol, propanoate (ester)], the minimal effective dose in test [1], in test [2], in test [3] and in test [4] was 12.5 mg/kg each time. In addition, the values for the EC50 in test [5] and in test [6] were 10 nM and 19 nM, respectively.
For the molecule `Cc1ccc(-c2nnc(N3CCC(OC(=O)c4ccccc4)CC3)nc2-c2ccc(C)cc2)cc1` [Example 17, 1-[5,6-bis(4-methylphenyl)-1,2,4-triazin-3-yl]-4-piperidinol, benzoate (ester)], the minimal effective dose in test [1], in test [2], in test [3] and in test [4] was > 200 mg/kg in each case. In addition, the figures for the EC50 in test [5] and in test [6] were 500 nM and 1000 nM, respectively.
As for `Cc1ccc(-c2nnc(N3CCCCC3)nc2-c2ccc(C)cc2)cc1` [Example 20, 5,6-bis(4-methylphenyl)-3-(1-piperidinyl)-1,2,4-triazine], the minimal effective dose was found to be 50 mg/kg in test [1], 12.5 mg/kg in test [2], 12.5 mg/kg in test [3] and 12.5 mg/kg in test [4]. Also, the EC50 in test [5] amounted to 5200 nM; in test [6], 515 nM.
`Cc1ccc(-c2nnc(N3CCCCCC3)nc2-c2ccc(C)cc2)cc1` [Example 21, 1-[5,6-bis(4-methylphenyl)-1,2,4-triazin-3-yl]-hexahydro-1H-azepine]: the minimal effective dose in test [1], in test [2], in test [3] and in test [4] was > 200 mg/kg throughout. In addition, the values for the EC50 in test [5] and in test [6] were 2000 nM and 600 nM, respectively.
In the case of `Cc1ccc(-c2nnc(N3CCCC(O)C3)nc2-c2ccc(C)cc2)cc1` (stereo not drawn) [Example 23, 1-[5,6-bis(4-methylphenyl)-1,2,4-triazin-3-yl]-3-piperidinol], the minimal effective dose in test [1] amounted to 50 mg/kg; in test [2], 12.5 mg/kg; in test [3], 50 mg/kg; in test [4], 12.5 mg/kg. Moreover, the EC50 was determined as 400 nM in test [5] and 700 nM in test [6].
With `CC(=O)OC1CCCN(c2nnc(-c3ccc(C)cc3)c(-c3ccc(C)cc3)n2)C1` (stereo not drawn) [Example 24, 1-[5,6-bis(4-methylphenyl)-1,2,4-triazine-3-yl]-3-piperidinol, acetate (ester)], the minimal effective dose in test [1], in test [2], in test [3] and in test [4] was > 200 mg/kg each time. The results for the EC50 in test [5] and in test [6] were 160 nM and 180 nM, respectively.
With `COC1CCN(c2nnc(-c3ccc(C)cc3)c(-c3ccc(C)cc3)n2)CC1` [Example 26, 3-(4-methoxy-1-piperidinyl)-5,6-bis(4-methylphenyl)-1,2,4-triazine], the minimal effective dose in test [1], in test [2], in test [3] and in test [4] was 6.2 mg/kg each time. The EC50 was found to be 80 nM in test [5] and 90 nM in test [6].

The values are drawn from US4585861A, “1,2,4-triazine derivatives” (Eli Lilly and Company, priority 1985, dated 1986).
